The text below walks through data of patent publication US20070122907A1, “Orchid culturing method” (priority 2005, published 2007).

The structures appear in SMILES notation.

One test relates to Dendrobium. Conditions: application to the mature pseudobulbs, not the developing ones; cited from earlier work.
For the next test, the system named is Phalaenopsis plants. Description: Induction of spiking in potted Phalaenopsis by spraying, number of inflorescences per plant. In kind it is in vivo. The conditions noted are these: spray 1000 ppm, 0.1% Zipper, 1% DMSO, 100 plants. From the text: Growing conditions for the plants throughout the whole greenhouse stay are the same, except for the above discussed variations in light and temperature. Preferably this means that the plants are potted in pots with a diameter of 10-20 cm, with a growing medium of bark, coconut, Styrofoam, sphagnum moss and turf. Preferably they are stored on table-high racks, which facilitates handling. Light intensity on the surface of the pot is 3000-15000 lux (see Schapendonlk, A.H.C.M., “Belichting Phalaenopsis”, PT-Project 12170, productverslag, Productschap Tuinbouw). Normal daylight is maintained, but preferably in wintertime a lights on:lights off regime of 14:10 hours is used. Watering is preferably automated and is taken care of by a sprinkler system or any other spraying system, an ebb and flow system, via gutters running along the racks, or by submerging the pots in a water basin Nutrients and/or fertiliser are added to the water on a regular basis (EC 0,5-2, NPK 20-20-20). See also ook “Cultivation Guidelines Phalaenopsis Pot Plants, supra.
In June 2004 three groups of Phalaenopsis plants have been induced 6 months after potting. For testing 100 plants were treated and 100 non-treated controls were used per variety. Both groups of plants were cultured as described above. […] The results in Table 1 show the number of inflorescences per plant for the different test groups.

A further test deals with Phalaenopsis. The conditions noted are these: cited from earlier work.

Turning to `c1ccc(CNc2ncnc3nc[nH]c23)cc1` [6-BA-P, 6-benzylaminopurine], the triggering of spiking entry in the test on Dendrobium was “shown to trigger spiking”. In addition, the Average stemcount treated in the test on Phalaenopsis plants (variety Anthura Malaga, untreated 1.23) was 3.61; with Phalaenopsis plants (variety Brother John Red Delight, untreated 1.13), 3.20; in the test with Phalaenopsis plants (variety Dutch Lady, untreated 1.58) it was 3.84; in the test with Phalaenopsis plants (variety Golden Treasure, untreated 1.44) it was 2.97; with Phalaenopsis plants (variety Lippe Flair 344, untreated 1.32), 3.38; in the test on Phalaenopsis plants (variety Maliby Leopard, untreated 1.51), 3.12. Further, the “induction of off-season spiking” value in the test with Phalaenopsis is recorded as “unable to induce off-season spiking”.
